The source of these data is US20260053800A1 (Veradermics, Incorporated, priority 2024, published 2026).

One data set concerns human lymphocytes. To be noted: cited from earlier work.
Data set [1] in a line: Case studies, oral minoxidil in male patients with androgenetic alopecia (blood pressure, heart rate, hair growth). The note with it: person.
For a further data set, the system named is rat bone marrow. To be noted: in vivo; cited from earlier work.
The next data set has as its system mouse bone marrow. To be noted: in vivo; cited from earlier work.
For the next data set, the system named is mice. The note with it: dietary up to 2 years, cited from earlier work.
The next data set relates to Chinese hamster cells. The note with it: long exposure times; cited from earlier work.
For data set [2] the following is noted: cited from earlier work.
Another data set deals with rat hepatocyte. To be noted: cited from earlier work.
A further data set deals with rats. The note with it: two-year study, oral administration; cited from earlier work.
For data set [3] the following is noted: cited from earlier work. This is another data set of the same source.
The conditions of data set [4]: hypertensive patients; intravenous infusion; cited from earlier work.

As to `Nc1cc(N2CCCCC2)nc(N)[n+]1[O-]` [minoxidil], the cytogenetic assay result is listed as “negative” in the data set with human lymphocytes and “equivocal” in the data set with Chinese hamster cells. For the same compound, the adverse events entry was “No unwanted hair growth or other adverse events were noticed” in data set [1] (0.625 mg four times a day) and “No unwanted hair growth or other adverse events, including any cardiac effects, were noticed” in data set [1] (1.25 mg QID). For the same compound, in [1] (0.625 mg four times a day), the “reductions in blood pressure” value is reported as “did not experience significant reductions in blood pressure”. Further, the mutagenicity result in the data set on rat bone marrow, in the data set with mouse bone marrow and in the data set on rat hepatocyte was “not mutagenic” each time. In addition, the “incidence of malignant lymphomas” value with mice (females, all dose levels (10, 25, and 63 mg/kg/day)) is “increased incidence of malignant lymphomas in females”. Also, the “incidence of hepatic nodules” value in the data set with mice (males, 63 mg/kg/day) is listed as “increased incidence of hepatic nodules in males”. Besides, the “effect on blood pressure” value in [2] (normotensive healthy volunteers, 2.5 mg, 5 mg, or 10 mg oral) is given as “little effect on blood pressure”. Also, the “fraction of oral dose metabolized” value in data set [2] (primarily conjugation with glucuronic acid) was “About 90%”. In the data set with rats, the carcinogenicity findings entry was “no positive findings”. For the same compound, the “temporary decrease in hematocrit, hemoglobin, and erythrocyte count” value in data set [3] (chronic therapy for severe hypertension, initially) is “approximately 7%”. The “patients exhibiting ECG alterations of T waves” value in data set [3] (soon after starting therapy) is given as “approximately 60%”. Further, the “steady state plasma concentration associated with significant (>5 beats per minute) changes in heart rate” value in [4] is given as “above 20 ng/mL”.
